Experimental data taken from patent US20210300924A1, “5-[6-[[3-(4,5,6,7-TETRAHYDROPYRAZOLO[4,3-C]PYRIDIN-1-YL)AZETIDIN-1-YL]METHYL]MORPHOLIN-4-YL]QUINOLINE-8-CARBONITRILE DERIVATIVES AND SIMILAR COMPOUNDS AS TLR7-9 ANTAGONISTS FOR TREATING SYSTEMIC LUPUS ERYTHEMATOSUS” (Hoffmann-La Roche Inc., priority 2018, published 2021).

Legend:
[1] = target: T1, human TLR7 (Homo sapiens, UniProt Q9NYK1); test: HEK293-Blue-hTLR-7 cells assay; type: cell-based; conditions: HEK293-Blue-hTLR7 cells, R848 stimulation, 20 hrs, SEAP reporter; read-out: HEK/hTLR7 IC50
T1 construct: host or cells: HEK293 (HEK-Blue hTLR7)
T1 sequence (Q9NYK1 27-1049): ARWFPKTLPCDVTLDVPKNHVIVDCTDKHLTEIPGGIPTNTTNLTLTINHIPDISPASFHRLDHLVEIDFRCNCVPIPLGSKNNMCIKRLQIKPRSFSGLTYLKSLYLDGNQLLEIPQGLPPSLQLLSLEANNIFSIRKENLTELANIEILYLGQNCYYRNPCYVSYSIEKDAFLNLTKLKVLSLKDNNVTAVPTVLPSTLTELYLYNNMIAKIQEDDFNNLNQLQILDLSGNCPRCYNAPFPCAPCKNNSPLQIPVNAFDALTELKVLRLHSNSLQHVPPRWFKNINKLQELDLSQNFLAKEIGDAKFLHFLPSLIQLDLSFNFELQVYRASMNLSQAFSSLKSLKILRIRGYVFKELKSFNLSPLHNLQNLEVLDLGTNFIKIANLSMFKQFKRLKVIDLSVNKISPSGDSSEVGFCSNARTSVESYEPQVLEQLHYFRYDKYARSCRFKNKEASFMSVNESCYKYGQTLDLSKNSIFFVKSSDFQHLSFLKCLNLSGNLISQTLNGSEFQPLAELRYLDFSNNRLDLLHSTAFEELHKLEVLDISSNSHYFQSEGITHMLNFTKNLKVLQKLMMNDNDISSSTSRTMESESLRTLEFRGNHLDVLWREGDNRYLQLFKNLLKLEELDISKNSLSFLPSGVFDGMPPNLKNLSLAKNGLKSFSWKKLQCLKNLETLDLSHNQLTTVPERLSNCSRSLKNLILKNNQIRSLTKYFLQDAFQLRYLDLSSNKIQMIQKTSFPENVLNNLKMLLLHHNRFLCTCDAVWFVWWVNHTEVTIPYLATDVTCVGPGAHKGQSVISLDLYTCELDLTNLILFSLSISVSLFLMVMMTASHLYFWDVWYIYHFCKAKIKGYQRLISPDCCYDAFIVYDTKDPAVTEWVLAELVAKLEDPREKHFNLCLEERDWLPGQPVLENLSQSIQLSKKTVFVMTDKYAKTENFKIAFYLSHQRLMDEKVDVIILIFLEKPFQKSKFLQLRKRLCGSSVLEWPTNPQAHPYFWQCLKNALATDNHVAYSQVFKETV
From the text: HEK293-Blue-hTLR-7 cells assay:
A stable HEK293-Blue-hTLR-7 cell line was purchased from InvivoGen (Cat. #: hkb-htlr7, San Diego, Calif., USA). These cells were originally designed for studying the stimulation of human TLR7 by monitoring the activation of NF-κB. A SEAP (secreted embryonic alkaline phosphatase) reporter gene was placed under the control of the IFN-β minimal promoter fused to five NF-κB and AP-1-binding sites. The SEAP was induced by activating NF-κB and AP-1 via stimulating HEK-Blue hTLR7 cells with TLR7 ligands. Therefore the reporter expression was declined by TLR7 antagonist under the stimulation of a ligand, such as R848 (Resiquimod), for incubation of 20 hrs. The cell culture supernatant SEAP reporter activity was determined using QUANTI-Blue™ kit (Cat. #: rep-qb1, Invivogen, San Diego, Ca, USA) at a wavelength of 640 nm, a detection medium that turns purple or blue in the presence of alkaline phosphatase.
HEK293-Blue-hTLR7 cells were incubated at a density of 250,000-450,000 cells/mL in a volume of 170 μL in a 96-well plate in Dulbecco's Modified Eagle's medium (DMEM) containing 4.5 g/L glucose, 50 U/mL penicillin, […], […], 2 mM L-glutamine, 10% (v/v) heat-inactivated fetal bovine serum with addition of 20 μL test compound in a serial dilution in the presence of final DMSO at 1% and 10 μL of 20 uM R848 in above DMEM, perform incubation under 37° C. in a CO2 incubator for 20 hrs. Then 20 μL of the supernatant from each well was incubated with 180 μL Quanti-blue substrate solution at 37° C. for 2 hrs and the absorbance was read at 620˜655 nm using a spectrophotometer. The signaling pathway that TLR7 activation leads to downstream NF-κB activation has been widely accepted, and therefore similar reporter assay was modified for evaluating TLR7 antagonist.

[2] = target: T2, CYP2D6 (Homo sapiens, UniProt P10635); test: CYP inhibition assay in human liver microsome; type: in vitro ADME; conditions: human liver microsomes, probe dextromethorphan, dextromethorphan substrate, percentage inhibition <0: not or weak inhibitor, read-out: CYP 2D6 inhibition % @ 10 μM
T2 construct: tissue BD-Gentest 452117; host or cells: human liver microsomes
Experimental: This is a high throughput screening assay used for assessment of reversible inhibition of CYP2D6 activity of test compounds in human liver microsome (HLM) in early discovery stage.
10 mM DMSO stock solutions of test compounds were diluted in DMSO to generate 2 mM intermediate stock solution. 250 nL of intermediate stock solution were transferred in duplicate into 3 separate 384 well microtitre plates (assay-ready plates). A mixture of HLM and each substrate was made up. 45 μL of HLM substrate mix was then transferred to each well of an assay ready plate and mixed. The negative (solvent) and positive control (standard inhibitor for CYP 2D6) were included in each assay ready plate. The assay ready plate was warmed to 37° C. in an incubator over 10 minutes. 5 μL pre-warmed NADPH regenerating system was added to each incubation well to start the reaction. Final incubation volume was 50 μL. The assay plate then was placed back in the 37° C. incubator. After 10 minutes incubation, incubates were quenched by addition of 50 μL 100% acetonitrile containing internal standards (20 ng/mL D3-Dextrorphan). The supernatants were collected for RapidFire/MS/MS analysis.
RapidFire online solid phase extraction/sample injection system (Agilent) coupled with API4000 triple quadrupole mass spectrometer (AB Sciex) were used for sample analysis. The mobile phase composed of acetonitrile and water supplemented with 0.1% formic acid. A C4 solid phase extraction cartridge is used for sample separation. MS detection is achieved in positive ion MRM mode.
Peak areas for substrate, metabolite and internal standard are determined using the RapidFire integrator software (version 3.6.12009.12296). Peak area ratios (PAR) of metabolite and internal standard (stable-labelled metabolite) are then calculated. The measurement window for each experiment is then defined:
PAR (0% activity)=average PAR for all incubations containing concentrated inhibitor;
Par (100% activity)=average PAR for all incubations containing no inhibitor (DMSO controls);
% Activity (test inhibitor)=
[PAR(test inhibitor)−PAR(0% activity)]/[PAR(100% activity)−PAR(0% activity)]; % Inhibition (test inhibitor)=100−% Activity (test inhibitor).

T2 sequence (P10635 whole entry): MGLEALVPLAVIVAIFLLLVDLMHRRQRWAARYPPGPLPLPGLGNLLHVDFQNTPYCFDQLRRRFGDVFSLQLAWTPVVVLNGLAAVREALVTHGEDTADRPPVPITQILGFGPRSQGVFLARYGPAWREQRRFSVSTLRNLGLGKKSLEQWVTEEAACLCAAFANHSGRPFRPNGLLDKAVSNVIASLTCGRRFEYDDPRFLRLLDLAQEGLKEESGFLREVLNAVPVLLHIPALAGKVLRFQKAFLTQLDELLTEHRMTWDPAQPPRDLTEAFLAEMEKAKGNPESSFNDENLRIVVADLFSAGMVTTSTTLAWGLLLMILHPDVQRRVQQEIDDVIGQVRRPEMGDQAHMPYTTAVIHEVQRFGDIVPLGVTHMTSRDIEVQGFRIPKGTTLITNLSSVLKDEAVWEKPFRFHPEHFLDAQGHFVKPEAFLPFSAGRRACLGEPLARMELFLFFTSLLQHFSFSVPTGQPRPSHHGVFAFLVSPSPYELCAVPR

Structure (SMILES) | IC50 [1] [nM] | inhibition at 10 min, 10 µM [2] [%]
C[C@@H]1CN(c2ccc(C#N)c3ncccc23)C[C@H](CN2CC(n3cc4c(n3)CCNC4)C2)O1 [Example 2, 5-[(2R,6S)-2-methyl-6-[[3-(4,5,6,7-tetrahydropyrazolo[4,3-c]pyridin-2-yl)azetidin-1-yl]methyl]morpholin-4-yl]quinoline-8-carbonitrile] | 25 | 1
C[C@@H]1Cc2c(cnn2C2CN(C[C@H]3CN(c4ccc(C#N)c5ncccc45)C[C@@H](C)O3)C2)CN1 [Example 16, 5-[(2R,6S)-2-methyl-6-[[3-[(6R)-6-methyl-4,5,6,7-tetrahydropyrazolo[4,3-c]pyridin-1-yl]azetidin-1-yl]methyl]morpholin-4-yl]quinoline-8-carbonitrile] | 4 | 8
C[C@@H]1Cc2cn(C3CN(C[C@H]4CN(c5ccc(C#N)c6ncccc56)C[C@@H](C)O4)C3)nc2CN1 (single isomer, unassigned) [Example 30] | 5 | 3.5
C[C@@H]1CN(c2ccc(C#N)c3ncccc23)C[C@H](CN2CC(n3cc4c(n3)CNC4)C2)O1 [Example 11, 5-[(2S,6R)-2-[[3-(5,6-dihydro-4H-pyrrolo[3,4-c]pyrazol-2-yl)azetidin-1-yl]methyl]-6-methyl-morpholin-4-yl]quinoline-8-carbonitrile] | 17 | -6
C[C@@H]1CN(c2ccc(C#N)c3ncccc23)C[C@H](CN2CC(n3ncc4c3CCN[C@H]4C)C2)O1 [Example 22, 5-[(2R,6S)-2-methyl-6-[[3-[(4S)-4-methyl-4,5,6,7-tetrahydropyrazolo[4,3-c]pyridin-1-yl]azetidin-1-yl]methyl]morpholin-4-yl]quinoline-8-carbonitrile] | 5 | 5.5
